Earlier results in patent US12390507B1, “Method to provide consistent product batches active components for alkaloids of kratom plants” (priority 2021, dated 2025).

Experiments:
α2-adrenergic receptor = conditions: α2 versus α1
α1-adrenergic receptor = conditions: α1 versus α2 adrenergic receptor antagonist

Compound: CC[C@@H]1CN2CCc3c([nH]c4cccc(O)c34)[C@@H]2C[C@@H]1/C(=C\OC)C(=O)OC [9-Hydroxycorynantheidine]
- maximum inhibition of electrically stimulated guinea-pig ileum contraction (opioid receptors; compared with mitragynine): weaker than that of mitragynine
- effect on electrically stimulated guinea-pig ileum contraction (opioid receptors; one study, quoted): inhibited
- effect of naloxone on the inhibition of guinea-pig ileum contraction (opioid receptors; with naloxone): antagonized by naloxone

Compound: COC(=O)[C@H]1[C@H]2C[C@H]3c4[nH]c5ccccc5c4CCN3C[C@H]2CC[C@@H]1O [rauwolscine]
- higher affinity for the α2-adrenergic receptor over the α1-adrenergic (α2-adrenergic receptor): 30 ×

Compound: COC(=O)[C@@H]1[C@H]2C[C@H]3c4[nH]c5ccccc5c4CCN3C[C@@H]2CC[C@@H]1O [yohimbine]
- higher affinity for the α2-adrenergic receptor over the α1-adrenergic (α2-adrenergic receptor): 30 ×

Compound: Corynantheidine
- greater affinity for the α1-adrenergic receptor (over α2-adrenergic receptor) (α1-adrenergic receptor): 10 ×
